Data set [1] in a line: Pharmacokinetics in cynomolgus monkeys. In kind it is in vivo. Conditions: male, cynomolgus monkey, plasma, iv, I.V. (1 mg/kg).
Data set [2] is described as follows: Pharmacokinetics in beagle dogs. The settings on record: male, dog, plasma, po, P.O. (1 mg/kg). In kind it is in vivo. An excerpt: (§1) The pharmacokinetics and pharmacodynamics of test compounds after a single oral dose were investigated in SD rats, Beagle dog and Cynomolgus monkey. SD Rats (200-250 g) were purchased from Beijing Vital River Laboratory Animal Technology Co., Ltd. Male Beagle Dog, 6-9 kg, were purchased from Beijing Mashall. Male Cynomolgus monkeys, 3-5 kg, were purchased from Suzhou Xishan Zhongke Drugs Research and Development Co., Ltd. Following arrival, the animals were acclimated for 7 days in individual cages maintained at ambient temperature, 34 to 68% relative humidity, and 12-h light/dark cycles. Just prior to dose administration the rats were fasted overnight with free access to water. Animals were given 10 mL/kg of formulated compound in 0.5% methylcellulose (MC) by oral gavage, and the animals were fed four hours after dosing. The animals were manually restrained at the designated time points (pre-dose, 0.5, 1, 3, 6, 9, 12, and 24 h post-dose) to collect blood. Approximately 120 μL of blood was collected via orbital sinus into K2EDTA tubes. The blood samples were centrifuged at 5000 rpm for 10 min at 4° C. to obtain plasma samples.
(§2) To determine the compound concentration in the plasma samples, a 10× calibration standard of compound were prepared by serial dilution in DMSO: 20000, 10000, 5000, 2000, 1000, 500, 200, 100, 50, 20, and 10 ng/mL. 3 μL of calibration standard solution was added into 27.0 μL of blank plasma in 1.5-mL microcentrifuge tubes to generate 1× calibration standards. The 30.0 μL of standards or study plasma was mixed with 200 μL of acetonitrile (containing 5 ng/mL verapamil for internal control) in a 1.5-mL microcentrifuge tube. After vertexing for 1 minute and centrifuging at 10000 rpm for 10 min, 180 μL of supernatant was transferred into a 96-well plate and the compound concentration in the plasma was quantitated using LC/MS/MS together with standards. Briefly, 1 μL of the solutions were injected for LC-MS/MS analysis using an Agilent Zorbax C18 column (50×2.1 mm, 3.5 μm) with mobile phase A [5 mM NH4Ac (0.1% FA)] and phase B [Methanol (0.1% FA)]. Mass spectrometer parameters optimization for compound was performed by infusing standard diluted at 1 μg/mL in water/methanol (1/1, v/v) directly in the ionization source at a flow of 10 μL/min. Quantitative data were acquired in multiple reaction monitoring (MRM) positive APCI mode.

Data set [3] can be described thus: Pharmacokinetics in cynomolgus monkeys. The data set is classed as in vivo. Conditions: male, cynomolgus monkey, plasma, po, P.O. (1 mg/kg).
Description: as §1, §2

Data set [4] has as its target T1, Autotaxin (Rattus norvegicus, UniProt Q64610).
T1 construct: from tissue; host or cells: SD rats in vivo; plasma sampled after a single oral dose
The data set is described as follows: Pharmacodynamics: LPA 18:2 inhibition in plasma of SD rats after oral dose. The settings on record: single oral dose, LPA18:2 inhibition vs plasma concentration of compound, read-out: In vivo rat IC50 (LPA 18:2) (converted).
Description: as §1
Autotaxin is a secreted phosphodiesterase that converts lysophosphatidylcholine (LPC) into lysophosphatidic acid (LPA), and LPA 18:2 formation was used to evaluate the efficacy of autotaxin inhibitors. Therefore, the LPA 18:2 formation in response to drug administration was analyzed in each time point to assess the pharmacodynamics of test compounds. To determine the LPA18:2 concentration in study plasma, a 10× calibration standard of LPA 18:2 were prepared by serial dilution in butyl alcohol: 20000, 10000, 5000, 2000, 1000, 500, 200, 100, 50, 20, and 10 ng/mL. 3 μL of calibration standard solution was added into 27.0 μL of blank plasma in 1.5-mL microcentrifuge tubes to generate 1× calibration standards. The 30.0 μL of standards or study plasma was added into 1.5-mL microcentrifuge tubes. 200 μL of butyl alcohol (containing 25.0 ng/mL LPA17:0 for internal control) was added into each 1.5-mL microcentrifuge tube containing study plasma or calibration standards. After vortexing for 1 minute and centrifuging at 10000 rpm for 10 min, 180 μL of supernatant was transferred into a 96-well plate and the LPA18:2 concentration in the plasma was quantitated using LC/MS/MS together with standards. Briefly, 8 μL of the solutions were injected for LC-MS/MS analysis using an ACQUITY UPLC BEH C18 column (2.1×50 mm, 1.7 μm) with mobile phase A [20 mM NH4OAC in water (0.1% FA)] and phase B [5 mM NH4OAC in water/0.2% FA in ACN=5:95]. Mass spectrometer parameters optimization for LPA18:2 were performed by infusing standard diluted at 1 μg/mL in butyl Alcohol directly in the ionization source, at a flow of 10 μL/min. Deprotonated molecular ion at m/z 433.2 ([M−H]−) for LPA18:2, and abundant product ion at m/z 152.8 for LPA18:2 were obtained. Quantitative data were acquired in multiple reaction monitoring (MRM) negative electrospray ionization mode
The percentage of LPA18:2 inhibition was plotted against the corresponding concentration of compound and the IC50 was calculated through non-linear regression fitting.

Data set [5] in a line: Pharmacokinetics after a single oral dose in SD rats. In kind it is in vivo. The settings on record: Sprague-Dawley, rat, plasma, single oral dose in 0.5% methylcellulose; for half-life: read-out: T½ (converted).
Description: as §1, §2

Data set [6] in a line: Metabolic stability in liver microsomes. The data set is classed as in vitro ADME. The settings on record: compound 1 μM; for metabolic stability (halftime in minutes), Dog: Beagle dog liver microsomes; for metabolic stability (halftime in minutes), Mouse: CD-1 mouse liver microsomes; for metabolic stability (halftime in minutes), Monkey: Cynomolgus monkey liver microsomes; for metabolic stability (halftime in minutes), Rat: SD rat liver microsomes. Here is the method: The metabolic stability was examined in human, rat, mouse, dog and cynomolgus monkey liver microsomes. Compound (1 μM) was mixed with diluted liver microsomes from each of the 5 species and a small aliquot was taken at 0, 5, 10, 20, 30 and 60 minutes for HPLC MS/MS analysis. Intrinsic clearance and half-life were calculated.

Consider `CCn1nc2ncc(N3CC4(CN(C(=O)C5CCOCC5)C4)C3)cc2c1N(C)c1nc(-c2ccc(F)cc2)c(C#N)s1` [Compound 118, 2-((2-ethyl-5-(6-(tetrahydro-2H-pyran-4-carbonyl)-2,6-diazaspiro[3.3]heptan-2-yl)-2H-pyrazolo[3,4-b]pyridin-3-yl)(methyl)amino)-4-(4-fluorophenyl)thiazole-5-carbonitrile], for which, in data set [1], the AUC was determined as 2640 ± 473 ng·h/mL, the C0 was 993 ± 8.6 ng/mL, the clearance was determined as 6.06 ± 1.2 mL/min/kg and the half-life is 6.59 ± 1.5 h. Moreover, in data set [2], the AUC worked out at 900 ± 305 ng·h/mL, the highest level (Cmax) was 165 ± 40 ng/mL, the bioavailability is 40.7 ± 14% and the half-life was 3.99 ± 0.89 h. In data set [3], this molecule gave an exposure (AUC) of 153 ± 10 ng·h/mL, a Cmax of 28 ± 3 ng/mL, a bioavailability of 2.9 ± 0.19% and a half-life of 2.63 ± 0.85 h. Moreover, in data set [4], the IC50 is 12.5 nM. Also, in data set [5], the exposure (AUC) turned out to be 2620 ± 1920 ng·h/mL, the highest concentration (Cmax) turned out to be 477 ± 250 ng/mL and the half-life was 3.85 ± 1.3 h. In data set [6], the “metabolic stability (halftime in minutes), Dog” value (“metabolic stability … Dog” below) is more than 145 min; the “metabolic stability (halftime in minutes), Mouse” value (“metabolic stability … Mouse” for short) was found to be 58.5 min; the “metabolic stability (halftime in minutes), Monkey” value (“metabolic stability … Monkey” below) came out at 21.3 min; the “metabolic stability (halftime in minutes), Rat” value (“metabolic stability … Rat” below) was more than 145 min. The “metabolic stability (halftime in minutes), Human” value (“metabolic stability … Human” for short) in data set [6] is 75.4 min.

In data set [1], `CCc1nn2cc(F)c(N3CCN(CC(=O)N4CC(O)C4)CC3)cc2c1N(C)c1nc(-c2ccc(F)cc2)c(C#N)s1` [Example 101, 2-[[2-ethyl-6-fluoro-5-[4-[2-(3-hydroxyazetidin-1-yl)-2-oxo-ethyl]piperazin-1-yl]pyrazolo[1,5-a]pyridin-3-yl]-methyl-amino]-4-(4-fluorophenyl)thiazole-5-carbonitrile] gave an AUC of 1990 ± 92 ng·h/mL, a C0 of 1220 ± 166 ng/mL, a clearance of 8.21 ± 0.38 mL/min/kg and a half-life of 1.82 ± 0.1 h. For the same molecule, in data set [2], the area under the curve (AUC) worked out at 4020 ± 549 ng·h/mL, the Cmax turned out to be 425 ± 68 ng/mL, the bioavailability amounted to 36.1 ± 4.9% and the half-life was 4.69 ± 0.17 h. In data set [3], this molecule showed an AUC of 1380 ± 904 ng·h/mL, a Cmax of 239 ± 119 ng/mL, a bioavailability of 35.6 ± 22% and a half-life of 2.49 ± 0.54 h. In addition, the IC50 in data set [4] is 8.64 nM. Moreover, in data set [5], the AUC is 2050 ± 884 ng·h/mL, the concentration peaked (Cmax) at 268 ± 76 ng/mL and the half-life was 3.29 ± 0.25 h. In data set [6], the “metabolic stability … Dog” value came out at 71.9 min; the “metabolic stability … Mouse” value worked out at 14.0 min; the “metabolic stability … Monkey” value was determined as 9.8 min; the “metabolic stability … Rat” value amounted to 96.6 min. Also, in data set [6], the “metabolic stability … Human” value came to 24.5 min.

In data set [2], `CCc1nn2cc(F)c(N3CC4(CN(C(=O)[C@H]5CCOC5)C4)C3)cc2c1N(C)c1nc(-c2ccc(F)cc2)c(C#N)s1` [Example 102, 2-[[2-ethyl-6-fluoro-5-[2-[(3S)-tetrahydrofuran-3-carbonyl]-2,6-diazaspiro[3.3]heptan-6-yl]pyrazolo[1,5-a]pyridin-3-yl]-methyl-amino]-4-(4-fluorophenyl)thiazole-5-carbonitrile] gave an area under the curve (AUC) of 2190 ± 325 ng·h/mL, a peak concentration (Cmax) of 192 ± 26 ng/mL, a bioavailability of 33.9 ± 5% and a half-life of 20.4 ± 6.1 h. For the same molecule, the IC50 in data set [4] was 8.85 nM. Also, in data set [5], the AUC came out at 7520 ± 498 ng·h/mL, the concentration peaked (Cmax) at 732 ± 95 ng/mL and the half-life is 5.53 ± 0.2 h. In data set [6], the “metabolic stability … Dog” value was 69.8 min; the “metabolic stability … Mouse” value came out at 17.9 min; the “metabolic stability … Monkey” value is 6.4 min; the “metabolic stability … Rat” value is 67.3 min. Further, the “metabolic stability … Human” value in data set [6] came to 13.4 min.

For the molecule `CCc1nc2c(C)cc(N3CCN(CC(=O)N4CC(O)C4)CC3)cn2c1N(C)c1nc(-c2ccc(F)cc2)c(C#N)s1` [GLPG1690], in data set [1], the area under the curve (AUC) is 2770 ± 246 ng·h/mL, the C0 is 4210 ± 1150 ng/mL, the clearance was determined as 6.02 ± 0.51 mL/min/kg and the half-life was 1.41 ± 0.19 h. Also, in data set [2], the AUC worked out at 5760 ± 672 ng·h/mL, the Cmax was found to be 1130 ± 229 ng/mL, the bioavailability came to 66.2 ± 7.5% and the half-life was 3.04 ± 0.77 h. In data set [3], this molecule had an AUC of 244 ± 118 ng·h/mL, a peak concentration (Cmax) of 72.6 ± 38 ng/mL, a bioavailability of 4.51 ± 2.1% and a half-life of 1.82 ± 0.63 h. Besides, the IC50 in data set [4] was 48.3 nM. Besides, in data set [5], the area under the curve (AUC) is 1260 ± 209 ng·h/mL, the highest concentration (Cmax) is 889 ± 173 ng/mL and the half-life was 3.15 ± 1.8 h. In data set [6], the “metabolic stability … Dog” value was determined as 32.1 min; the “metabolic stability … Mouse” value is 10.3 min; the “metabolic stability … Monkey” value worked out at 4.8 min; the “metabolic stability … Rat” value came out at 9.2 min. Further, in data set [6], the “metabolic stability … Human” value amounted to 10.8 min.

The term AUC denotes concentration integrated over time. What is called clearance is the rate of elimination divided by the concentration. For orientation: Cmax means the highest concentration seen after dosing. The bioavailability is dose-corrected exposure relative to a reference, in per cent. The IC50 is the concentration needed to halve the response being measured.

For the origin of these results see patent US10711000B2 (Fronthera U.S. Pharmaceuticals LLC, priority 2018, dated 2020).
